This test has as its system HEK293T cells carrying the ATF4 luciferase reporter. Put plainly: ATF4-Luc assay (in vitro model of vanishing white matter disease). Type of test: cell-based. The settings on record: Homo sapiens, HEK-293T, 1 μg/mL tunicamycin, 7 hours. As for the experimental part: In order to test exemplary compounds of the invention in a cellular context, a stable VWMD cell line was first constructed. The ATF4 reporter was prepared by fusing the human full-length ATF4 5′-UTR (NCBI Accession No. BCO22088.2) in front of the firefly luciferase (FLuc) coding sequence lacking the initiator methionine as described in Sidrauski et al (eLife 2013). The construct was used to produce recombinant retroviruses using standard methods and the resulting viral supernatant was used to transduce HEK293T cells, which were then subsequently selected with puromycin to generate a stable cell line.
HEK293T cells carrying the ATF4 luciferase reporter were plated on polylysine coated 384-well plates (Greiner Bio-one) at 30,000 cells per well. Cells were treated the next day with 1 μg/mL tunicamycin and 200 nM of a compound of Formula (I) for 7 hours. Luminescence was measured using One Glo (Promega) as specified by the manufacturer. Cells were maintained in DMEM with L-glutamine supplemented with 10% heat-inactivated FBS (Gibco) and Antibiotic-Antimycotic solution (Gibco).
Table 2 below summarizes the EC50 data obtained using the ATF4-Luc assay for exemplary compounds of the invention.

The structures appear in SMILES notation.

As a reminder, the EC50 is the concentration at which the effect is half-maximal. With `O=C(COc1ccc(Cl)c(F)c1)NC12CCC(C(=O)NCc3ccc(Cl)cn3)(CC1)CC2` [Compound 257, 4-[2-(4-chloro-3-fluorophenoxy)acetamido]-N-[(5-chloropyridin-2-yl)methyl]bicyclo[2.2.2]octane-1-carboxamide], the EC50 was less than 0.25 µM.
Take `Cc1cnc(CNC(=O)C23CCC(NC(=O)COc4ccc(Cl)c(F)c4)(CC2)CC3)cn1` [Compound 258, 4-[2-(4-chloro-3-fluorophenoxy)acetamido]-N-[(5-methylpyrazin-2-yl)methyl]bicyclo[2.2.2]octane-1-carboxamide]: the EC50 fell in the range of 0.5 to 1 µM.
On to `O=C(COc1ccc(Cl)c(F)c1)NC12CCC(C(=O)NCc3ccccn3)(CC1)CC2` [Compound 259, 4-[2-(4-chloro-3-fluorophenoxy)acetamido]-N-[(pyridin-2-yl)methyl]bicyclo[2.2.2]octane-1-carboxamide], for which the EC50 lay within 0.5 to 1 µM.
The result for `O=C(COc1ccc(Cl)c(F)c1)NC12CCC(C(=O)NCc3ccc(Cl)cc3)(CC1)CC2` [Compound 260, 4-[2-(4-chloro-3-fluorophenoxy)acetamido]-N-[(4-chlorophenyl)methyl]bicyclo[2.2.2]octane-1-carboxamide] reads less than 0.25 µM.
`O=C(COc1ccc(Cl)c(F)c1)NC12CCC(C(=O)NCc3ccc(C(F)(F)F)cn3)(CC1)CC2` [Compound 261, 4-[2-(4-chloro-3-fluorophenoxy)acetamido]-N-{[5-(trifluoromethyl)pyridin-2-yl]methyl}bicyclo[2.2.2]octane-1-carboxamide]: the EC50 is less than 0.25 µM.
In the case of `O=C(COc1ccc(Cl)c(F)c1)NC12CCC(C(=O)NCc3ccc(OC(F)F)nc3)(CC1)CC2` [Compound 262, 4-[2-(4-chloro-3-fluorophenoxy)acetamido]-N-{[6-(difluoromethoxy)pyridin-3-yl]methyl}bicyclo[2.2.2]octane-1-carboxamide], the EC50 is less than 0.25 µM.
To `O=C(COc1ccc(Cl)c(F)c1)NC12CCC(C(=O)NCc3ccc(OC(F)F)cn3)(CC1)CC2` [Compound 265, 4-[2-(4-chloro-3-fluorophenoxy)acetamido]-N-{[5-(difluoromethoxy)pyridin-2-yl]methyl}bicyclo[2.2.2]octane-1-carboxamide] belongs less than 0.25 µM; to `O=C(COc1ccc(Cl)c(F)c1)NC12CCC(C(=O)Nc3ccc(OC(F)F)nc3)(C1)C2` [Compound 268, 4-[2-(4-chloro-3-fluorophenoxy)acetamido]-N-[6-(difluoromethoxy)pyridin-3-yl]bicyclo[2.1.1]hexane-1-carboxamide], 0.25 to 0.5 µM.
To `O=C(COc1ccc(Cl)c(F)c1)NC12CCC(C(=O)NCC(=O)c3ccc(Cl)cc3)(CC1)[C@@H](O)C2` [Compound 273, (2S)-4-[2-(4-chloro-3-fluorophenoxy)acetamido]-N-[2-(4-chlorophenyl)-2-oxoethyl]-2-hydroxybicyclo[2.2.2]octane-1-carboxamide] belongs less than 0.25 µM; to `O=C(COc1ccc(Cl)c(F)c1)NC12CCC(C(=O)NCc3ccc(C(F)(F)F)cc3)(CC1)CC2O` (centres unmarked) [Compound 274, 4-[2-(4-chloro-3-fluorophenoxy)acetamido]-3-hydroxy-N-{[4-(trifluoromethyl)phenyl]methyl}bicyclo[2.2.2]octane-1-carboxamide], less than 0.25 µM.
With `O=C(COc1ccc(Cl)c(F)c1)NC12CCC(C(=O)NCc3ccc(C(F)(F)F)cn3)(CC1)CC2O` (centres unmarked) [Compound 275, 4-[2-(4-chloro-3-fluorophenoxy)acetamido]-3-hydroxy-N-{[5-(trifluoromethyl)pyridin-2-yl]methyl}bicyclo[2.2.2]octane-1-carboxamide], the 50% effective concentration (EC50) was less than 0.25 µM.
Consider `O=C(COc1ccc(Cl)c(F)c1)NC12CCC(C(=O)NCC(=O)c3ccc(Cl)cc3)(CC1)[C@H](O)C2` [Compound 276, (2R)-4-[2-(4-chloro-3-fluorophenoxy)acetamido]-N-[2-(4-chlorophenyl)-2-oxoethyl]-2-hydroxybicyclo[2.2.2]octane-1-carboxamide], for which the EC50 was less than 0.25 µM.
The result for `O=C(CNC(=O)C12CCC(NC(=O)COc3ccc(Cl)c(F)c3)(CC1)C[C@@H]2O)Cc1ccccc1` [Compound 277, (2S)-4-[2-(4-chloro-3-fluorophenoxy)acetamido]-2-hydroxy-N-(2-oxo-3-phenylpropyl)bicyclo[2.2.2]octane-1-carboxamide] reads less than 0.25 µM.
The result for `O=C(COc1ccc(Cl)c(F)c1)NC12CCC(C(=O)Nc3ccc(OC(F)F)nc3)(CC1)CC2` [Compound 278, 4-[2-(4-chloro-3-fluorophenoxy)acetamido]-N-[6-(difluoromethoxy)pyridin-3-yl]bicyclo[2.2.2]octane-1-carboxamide] reads less than 0.25 µM; that for `O=C(COc1ccc(Cl)c(F)c1)NC12CCC(C(=O)Nc3ccc(OC(F)(F)F)cn3)(CC1)CC2` [Compound 279, 4-[2-(4-chloro-3-fluorophenoxy)acetamido]-N-[5-(trifluoromethoxy)pyridin-2-yl]bicyclo[2.2.2]octane-1-carboxamide], less than 0.25 µM.
To `O=C(COc1ccc(Cl)c(F)c1)NC12CCC(C(=O)Nc3ccc(OC(F)(F)F)nc3)(CC1)CC2` [Compound 280, 4-[2-(4-chloro-3-fluorophenoxy)acetamido]-N-[6-(trifluoromethoxy)pyridin-3-yl]bicyclo[2.2.2]octane-1-carboxamide] belongs less than 0.25 µM; to `O=C(COc1ccc(Cl)c(F)c1)NC12CCC(C(=O)Nc3ccc(OCC(F)(F)F)nc3)(CC1)CC2` [Compound 281, 4-[2-(4-chloro-3-fluorophenoxy)acetamido]-N-[6-(2,2,2-trifluoroethoxy)pyridin-3-yl]bicyclo[2.2.2]octane-1-carboxamide], greater than 2 µM.
Regarding `O=C(COc1ccc(Cl)c(F)c1)NC12CC(C(=O)Nc3ccc(OC(F)F)nc3)(C1)C2` [Compound 282, 3-[2-(4-chloro-3-fluorophenoxy)acetamido]-N-[6-(difluoromethoxy)pyridin-3-yl]bicyclo[1.1.1]pentane-1-carboxamide], the EC50 is less than 0.25 µM.
The result for `O=C(COc1ccc(Cl)c(F)c1)NC12CC(C(=O)Nc3ccc(Cl)cc3)(C1)C2` [Compound 283, 3-[2-(4-chloro-3-fluorophenoxy)acetamido]-N-(4-chlorophenyl)bicyclo[1.1.1]pentane-1-carboxamide] reads less than 0.25 µM; that for `O=C(COc1ccc(Cl)c(F)c1)NC12CC(C(=O)Nc3cnc(C(F)F)cn3)(C1)C2` [Compound 284, 3-[2-(4-chloro-3-fluorophenoxy)acetamido]-N-[5-(difluoromethyl)pyrazin-2-yl]bicyclo[1.1.1]pentane-1-carboxamide], less than 0.25 µM; that for `O=C(COc1ccc(Cl)c(F)c1)NC12CC(C(=O)Nc3ccccc3)(C1)C2` [Compound 285, 3-[2-(4-chloro-3-fluorophenoxy)acetamido]-N-phenylbicyclo[1.1.1]pentane-1-carboxamide], less than 0.25 µM.
With `O=C(COc1ccc(Cl)c(F)c1)NC12CCC(C(=O)Nc3ccc(Cl)cc3)(C1)C2` [Compound 286, 4-[2-(4-chloro-3-fluorophenoxy)acetamido]-N-(4-chlorophenyl)bicyclo[2.1.1]hexane-1-carboxamide], the EC50 was greater than 2 µM.
Regarding `O=C(COc1ccc(Cl)c(F)c1)NC12CC(C(=O)Nc3ccc(OC(F)(F)F)cn3)(C1)C2` [Compound 287, 3-[2-(4-chloro-3-fluorophenoxy)acetamido]-N-[5-(trifluoromethoxy)pyridin-2-yl]bicyclo[1.1.1]pentane-1-carboxamide], the 50% effective concentration (EC50) was less than 0.25 µM.
Regarding `O=C(COc1ccc(Cl)c(F)c1)NC12CCC(C(=O)Nc3ccc(OC(F)(F)F)cn3)(C1)C2` [Compound 288, 4-[2-(4-chloro-3-fluorophenoxy)acetamido]-N-[5-(trifluoromethoxy)pyridin-2-yl]bicyclo[2.1.1]hexane-1-carboxamide], the EC50 was less than 0.25 µM.
The result for `O=C(COc1ccc(Cl)c(Cl)c1)NC12CC(C(=O)Nc3ccccn3)(C1)C2` [Compound 289, 3-[2-(3,4-dichlorophenoxy)acetamido]-N-(pyridin-2-yl)bicyclo[1.1.1]pentane-1-carboxamide] reads less than 0.25 µM.
The result for `O=C(COc1ccc(Cl)c(F)c1)NC12CC(C(=O)Nc3ccccn3)(C1)C2` [Compound 290, 3-[2-(4-chloro-3-fluorophenoxy)acetamido]-N-(pyridin-2-yl)bicyclo[1.1.1]pentane-1-carboxamide] reads less than 0.25 µM; that for `O=C(COc1ccc(Cl)c(Cl)c1)NC12CC(C(=O)Nc3ccc(OC(F)(F)F)cn3)(C1)C2` [Compound 291, 3-[2-(3,4-dichlorophenoxy)acetamido]-N-[5-(trifluoromethoxy)pyridin-2-yl]bicyclo[1.1.1]pentane-1-carboxamide], less than 0.25 µM.
Consider `O=C(COc1ccc(Cl)c(Cl)c1)NC12CCC(C(=O)Nc3ccc(OC(F)(F)F)cn3)(C1)C2` [Compound 292, 4-[2-(3,4-dichlorophenoxy)acetamido]-N-[5-(trifluoromethoxy)pyridin-2-yl]bicyclo[2.1.1]hexane-1-carboxamide], for which the EC50 was less than 0.25 µM.
For the molecule `O=C(COc1ccc2c(c1)OC(F)(F)O2)NC12CCC(C(=O)Nc3ccc(OC(F)(F)F)cn3)(C1)C2` [Compound 293, 4-{2-[(2,2-difluoro-2H-1,3-benzodioxol-5-yl)oxy]acetamido}-N-[5-(trifluoromethoxy)pyridin-2-yl]bicyclo[2.1.1]hexane-1-carboxamide], the EC50 lay within 0.25 to 0.5 µM.
